# Data as given in US10703764B2, “Benzopiperazine compositions as BET bromodomain inhibitors” (FORMA Therapeutics, Inc., priority 2013, dated 2020).
# Key:
# [1] = biological target: T1, BRD4 BD2 (Homo sapiens, UniProt O60885); test: AlphaScreen binding assay, BRD4 Bromodomain 2
# T1 construct: made in house
# Procedure, shortened: (§1)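 Compound dilution series were mixed with His-tagged BRD4 bromodomain and biotinylated tetra-acetylated H4 (1-21) peptide at pH 7.3 (BD1 and peptide at 50 nM, BD2 and peptide at 100 nM). Donor and acceptor beads were then added, and plates were equilibrated at least 1 h before reading. IC50 values were fitted with a four-parameter logistic model.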
# [2] = tested on: MV4-11 cells; test: Oncology cell growth assay (3-day proliferation, CellTiter-Glo); format: cell-based; details: Homo sapiens, MV4-11, 72 h, AML cell line MV4-11, 72 hours, compounds grouped by IC50 range, read-out: MV4-11 IC50 (inhibition of proliferation, gIC50)
# Procedure, shortened: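 Compounds were serially diluted 3-fold in DMSO, giving final well concentrations from 10 down to 0.0045 μM. MV4-11 cells were then seeded at 3000 cells/well in RPMI 1640 with 10% FBS and incubated 72 hours. CellTiter-Glo signal was measured and gIC50 obtained by four-parameter logistic regression.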
# [3] = biological target: T2, BRD4 BD1 (Homo sapiens, UniProt O60885); test: AlphaScreen binding assay, BRD4 Bromodomain 1
# T2 construct: made in house
# Procedure, shortened: as §1
SMILES,IC50 [1] [nM],IC50 [2] [nM],IC50 [3] [nM]
"CC(=O)N1c2ccc(-c3ccc(S(C)(=O)=O)cc3)cc2N(C(=O)OC2CC(F)(F)C2)C[C@@H]1C [Example I-5, (S)-3,3-difluorocyclobutyl 4-acetyl-3-methyl-7-(4-(methylsulfonyl)phenyl)-3,4-dihydroquinoxaline-1(2H)-carboxylate]",50 to 500,100 to 500,100 to 1000
"CC(=O)N1c2ccc(-c3cnn(C4CCOCC4)c3)cc2N(C(=O)OC2CC(F)(F)C2)C[C@@H]1C [Example I-4, (S)-3,3-difluorocyclobutyl 4-acetyl-3-methyl-7-(1-(tetrahydro-2H-pyran-4-yl)-1H-pyrazol-4-yl)-3,4-dihydroquinoxaline-1(2H)-carboxylate]",50 to 500,100 to 500,100 to 1000
CC(=O)N1c2ccc(-c3ccc(S(C)(=O)=O)c(F)c3)cc2N(C(=O)C2CC2)C[C@@H]1C [Example I-1082],50 to 500,> 500,1000 to 10000
CC(=O)N1c2ccc(-c3cnn(C4CC4)c3)cc2N(C(=O)Oc2cc(F)ccc2F)C[C@@H]1C [Example I-503],50 to 500,100 to 500,100 to 1000
"CC(=O)N1c2cc(NS(C)(=O)=O)ccc2N(C(=O)OC(C)C)C[C@@H]1C [Example I-201, Isopropyl (S)-4-acetyl-3-methyl-6-(methylsulfonamido)-3,4-dihydro quinoxaline-1(2H)-carboxylate]",> 500,> 500,> 10000
CC(=O)N1c2ccc(-c3ccc(S(=O)(=O)NCCO)cc3)cc2N(C(=O)OC2CCCCC2)C[C@@H]1C [Example I-1217],< 50,< 100,100 to 1000
CCOC(=O)N1C[C@H](C)N(C(C)=O)c2ccc(-c3ccc(S(=O)(=O)n4cccn4)cc3)cc21 [Example I-1117],50 to 500,> 500,1000 to 10000
COC(=O)c1ccc(OC(=O)N2C[C@H](C)N(C(C)=O)c3ccc(-c4cnn(C5CC5)c4)cc32)cc1 [Example I-262],< 50,100 to 500,100 to 1000
CC(=O)N1c2ccc(-c3cnn(CCC#N)c3)cc2N(C(=O)OC(C)C)C[C@@H]1C [Example I-679],50 to 500,100 to 500,100 to 1000
"CC(=O)N1c2cc(C(N)=O)c(-c3cnn(C4CC4)c3)cc2N(C(=O)OC(C)C)C[C@@H]1C [Example I-212, Isopropyl (S)-4-acetyl-6-carbamoyl-7-(1-cyclopropyl-1H-pyrazol-4-yl)-3-methyl-3,4-dihydroquinoxaline-1(2H)-carboxylate]",50 to 500,100 to 500,100 to 1000
"CC(=O)N1c2ccc(-c3cnn(CC(C)(C)O)c3)cc2N(C(=O)OC2CCC(F)(F)CC2)C[C@@H]1C [Example I-35, (S)-4,4-difluorocyclohexyl 4-acetyl-7-(1-(2-hydroxy-2-methylpropyl)-1H-pyrazol-4-yl)-3-methyl-3,4-dihydroquinoxaline-1(2H)-carboxylate]",50 to 500,100 to 500,100 to 1000
CC(=O)N1c2ccc(-c3cnn(C4CS(=O)(=O)C4)c3)cc2N(C(=O)OC2CCCCC2)C[C@@H]1C [Example I-1308],< 50,100 to 500,100 to 1000
CC(=O)N1c2ccc(-c3ccccc3)cc2N(C(=O)c2ccco2)C[C@@H]1C [Example I-804],< 50,100 to 500,1000 to 10000
"CC(=O)N1c2cc(N)c(-c3ccc(S(C)(=O)=O)cc3)cc2N(C(=O)OC(C)C)C[C@@H]1C [Example I-216, Isopropyl (S)-4-acetyl-6-amino-3-methyl-7-(4-(methylsulfonyl)phenyl)-3,4-dihydroquinoxaline-1 (2H)-carboxylate]",> 500,> 500,1000 to 10000
COC(=O)N1c2ccc(-c3cnn(C4CC4)c3)cc2N(C(=O)Oc2ccccn2)C[C@@H]1C [Example I-1323],< 50,100 to 500,100 to 1000
"CC(=O)N1c2ccc(-c3cn[nH]c3)cc2N(C(=O)Oc2ccccc2)C[C@@H]1C [Example I-16, (S)-phenyl 4-acetyl-3-methyl-7-(1H-pyrazol-4-yl)-3,4-dihydroquinoxaline-1(2H)-carboxylate]",< 50,< 100,100 to 1000

# Continued, values first:
IC50 [1] [nM],IC50 [2] [nM],IC50 [3] [nM],SMILES
> 500,> 500,1000 to 10000,"CC(=O)Nc1cc2c(cc1Br)N(C(=O)OC(C)C)C[C@H](C)N2C(C)=O [Example I-203, Isopropyl (S)-6-acetamido-4-acetyl-7-bromo-3-methyl-3,4-dihydro quinoxaline-1(2H)-carboxylate]"
< 50,100 to 500,100 to 1000,CC(=O)N1c2ccc(-c3cnn(C4CNC4)c3)cc2N(C(=O)OC(C)C)C[C@@H]1C [Example I-356]
50 to 500,100 to 500,100 to 1000,CCS(=O)(=O)c1cccc(-c2ccc3c(c2)N(C(=O)OC2CCOCC2)C[C@H](C)N3C(C)=O)c1 [Example I-1246]
50 to 500,100 to 500,100 to 1000,CC(=O)N1c2ccc(-c3ccc(S(=O)(=O)N(C)C)cc3)cc2N(C(=O)OC2CCOCC2)C[C@@H]1C [Example I-1264]
< 50,100 to 500,1000 to 10000,"CC(=O)N1c2ccc(-c3cc[nH]n3)cc2N(C(=O)c2ccco2)C[C@@H]1C [Example I-14, (S)-1-(4-(furan-2-carbonyl)-2-methyl-6-(1H-pyrazol-3-yl)-3,4-dihydro-quinoxalin-1(2H)-yl)ethanone]"
50 to 500,100 to 500,100 to 1000,"CC(=O)N1c2ccc(-c3cnn(C4CC4)c3)cc2N(C(=O)OC(CF)CF)C[C@@H]1C [Example I-80, (S)-1,3-difluoropropan-2-yl 4-acetyl-7-(1-cyclopropyl-1H-pyrazol-4-yl)-3-methyl-3,4-dihydroquinoxaline-1(2H)-carboxylate]"
50 to 500,> 500,1000 to 10000,CCS(=O)(=O)c1ccc(-c2ccc3c(c2)N(C(=O)C2CCC2)C[C@H](C)N3C(C)=O)cc1 [Example I-1028]
50 to 500,< 100,100 to 1000,CC(=O)N1c2ccc(-c3cnn(C4CC4)c3)cc2N(C(=O)Oc2cccc(C)c2)C[C@@H]1C [Example I-517]
< 50,100 to 500,100 to 1000,"CC(=O)N1c2ccc(-c3cn[nH]c3)cc2N(C(=O)c2ccco2)C[C@@H]1C [Example I-13, (S)-1-(4-(furan-2-carbonyl)-2-methyl-6-(1H-pyrazol-4-yl)-3,4-dihydro-quinoxalin-1(2H)-yl)ethanone]"
50 to 500,> 500,100 to 1000,CC(=O)N1c2ccc(-c3ccc4c(c3)N(C)S(=O)(=O)N4)cc2N(C(=O)OC(C)C)C[C@@H]1C [Example I-1177]
50 to 500,> 500,1000 to 10000,CCOC(=O)N1C[C@H](C)N(C(C)=O)c2ccc(-c3cccc(NS(=O)(=O)CC)c3)cc21 [Example I-1056]
50 to 500,> 500,100 to 1000,CC(=O)N1c2ccc(-c3ccc(S(=O)(=O)CC4CC4)cc3)cc2N(C(=O)OC2CCOCC2)C[C@@H]1C [Example I-1238]
50 to 500,100 to 500,100 to 1000,CCCOC(=O)N1C[C@H](C)N(C(C)=O)c2ccc(-c3ccc(S(C)(=O)=O)cc3)cc21 [Example I-252]
